Experiments:
Type in all cases: cell-based
[1] = system: Caki-2 cells; assay: CTG (CellTiter-Glo) cell viability assay, Caki-2; conditions: Homo sapiens, 72 h, 3 day incubation, read-out: CTG Chempartner - Caki-2 3 day: Average external-IC50
Method: Compound-mediated viability effect on MOLT-4 and Caki-2 was quantitatively determined using the CellTiter-Glo® Luminescent Cell Viability Assay kit from Promega (Catalog number G7570) following manufacturer's recommended procedures. Briefly, MOLT-4 and Caki-2 cells were seeded into 384 well plates (Grenier Bio-One, Catalog number 781080) with a density of 10,000 cells per well. Compounds were then added to the assay plate with final top concentration of 10 μM and 1:3 dilution series with total of 9 doses. The final DMSO concentration is normalized to 0.2%. The assay plates were incubated at 37° C., for 3 days under 5% CO2. Then the assay plate was equilibrated at room temperature for 10 minutes. To determine cell viability, 30 uL CellTiter Glo reagent was added to each well and the assay plate was centrifuged at 1000 rpm for 30 second, incubated at room temperature for 10 min, and analyzed by detecting the luminescence using a multimode plate reader (EnVision 2105, PerkinElmer). The data was then analyzed by software Prism 7.0 from GraphPad and the dose response curves are fit using a three-parameter logistic equation to calculate IC50.
The letter codes for MOLT-4 IC50 include: A (<0.1 μM); B (0.1-1.0 μM); C (>1.0-3.0 μM); and D (>3.0 μM). The letter codes for Caki-2 IC50 include: A (<0.1 μM); B (0.1-1.0 μM); C (>1.0-10.0 μM); and D (>10.0 μM).

[2] = system: MOLT-4 cells; assay: CTG (CellTiter-Glo) cell viability assay, MOLT-4; conditions: Homo sapiens, MOLT-4, 72 h, 3 day incubation, read-out: CTG Cell Viability Assay - MOLT-4 3 day: Average external-IC50
Summary of the method: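 Nine-point 1:3 compound series topping at 10 μM (0.2% DMSO final) applied for 3 days to 10,000 MOLT-4 or Caki-2 cells per well, 37° C., 5% CO2. CellTiter-Glo luminescence read after 10 min at room temperature; three-parameter fit gave IC50.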

[3] = molecular target: T1, BCL-XL (Homo sapiens, UniProt Q07817); assay: Bcl-xL ELISA degradation in MOLT-4 cells, 6 h; conditions: for DC50: read-out: Bcl-xL ELISA in MOLT-4 degradation 6 h: Mean external-Abs DC50
T1 construct: endogenous in cells; host or cells: MOLT-4
Method: The letter codes for BCL-XL DC50 include: A (<0.01 μM); B (0.01-0.1 μM); C (>[…]); D (>0.5-1.0 μM); and E (>1.0 μM). The letter codes for Dmax % include A (>75%); B (50 to 75%); C (<50%).

T1 sequence (Q07817 whole entry): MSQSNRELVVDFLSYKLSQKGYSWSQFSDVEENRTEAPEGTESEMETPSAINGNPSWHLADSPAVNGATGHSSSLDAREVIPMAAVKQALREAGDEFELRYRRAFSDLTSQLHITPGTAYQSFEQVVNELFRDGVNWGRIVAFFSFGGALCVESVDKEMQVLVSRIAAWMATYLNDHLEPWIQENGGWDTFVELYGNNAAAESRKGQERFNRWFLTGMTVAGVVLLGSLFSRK

Row | SMILES | IC50 [2] | Dmax [3] | DC50 [3] | IC50 [1]
1 | Cc1ncsc1-c1ccc([C@H](C)NC(=O)[C@@H]2C[C@@H](O)CN2C(=O)[C@@H](c2cc(OC3CCN(CCNC(=O)c4nc(N5CCc6cccc(C(=O)Nc7nc8ccccc8s7)c6C5)ccc4-c4cnn(CC5CCCCC5)c4C)CC3)no2)C(C)C)cc1 [I-291] | 1000 to 3000 nM | < 50% | 500 to 1000 nM | 1000 to 10000 nM
2 | Cc1ncsc1-c1ccc([C@H](C)NC(=O)[C@@H]2C[C@@H](O)CN2C(=O)[C@H](c2cc(OC3CC4(C3)CN(C(=O)c3nc(N5CCc6cccc(C(=O)Nc7nc8ccccc8s7)c6C5)ccc3-c3cnn(CC5CCCCC5)c3C)C4)no2)C(C)C)cc1 [I-293] | 1000 to 3000 nM | < 50% | 500 to 1000 nM | 1000 to 10000 nM
3 | Cc1ncsc1-c1ccc([C@H](C)NC(=O)[C@@H]2C[C@H](O)CN2C(=O)[C@@H](NC(=O)C2CCN(c3ccc(S(=O)(=O)NC(=O)c4nc(N5CCc6cccc(C(=O)Nc7nc8ccccc8s7)c6C5)ccc4-c4cnn(CC5CCCCC5)c4C)cc3)CC2)C(C)(C)C)cc1 [I-295] | 100 to 1000 nM | 50 to 75% | 10 to 100 nM | 1000 to 10000 nM
4 | Cc1ncsc1-c1ccc([C@H](C)NC(=O)[C@@H]2C[C@@H](O)CN2C(=O)[C@@H](NC(=O)C2CCN(c3ccc(S(=O)(=O)NC(=O)c4nc(N5CCc6cccc(C(=O)Nc7nc8ccccc8s7)c6C5)ccc4-c4cnn(CC5CCCCC5)c4C)cc3CC(=O)O)CC2)C(C)(C)C)cc1 [I-296] | 100 to 1000 nM | 50 to 75% | 100 to 500 nM | 1000 to 10000 nM
5 | Cc1ncsc1-c1ccc([C@H](C)NC(=O)[C@@H]2C[C@@H](O)CN2C(=O)[C@@H](NC(=O)CCCCc2ccc(NC(=O)c3nc(N4CCc5cccc(C(=O)Nc6nc7ccccc7s6)c5C4)ccc3-c3cnn(CC4CCCCC4)c3C)cc2)C(C)(C)C)cc1 [I-298] | 100 to 1000 nM | < 50% | 500 to 1000 nM | 1000 to 10000 nM
6 | Cc1ncsc1-c1ccc([C@H](C)NC(=O)[C@@H]2C[C@@H](O)CN2C(=O)[C@@H](NC(=O)C2CCN(c3ccc(S(=O)(=O)NC(=O)c4nc(N5CCc6cccc(C(=O)Nc7nc8ccccc8s7)c6C5)ccc4-c4cnn(CC5CCCCC5)c4C)cc3)C(=O)C2)C(C)(C)C)cc1 (some centres unmarked) [I-299] | 100 to 1000 nM | > 75% | 100 to 500 nM | 1000 to 10000 nM
7 | Cc1ncsc1-c1ccc([C@H](C)NC(=O)[C@@H]2C[C@@H](O)CN2C(=O)[C@@H](NC(=O)C2CCN(c3ccc(S(=O)(=O)NC(=O)c4nc(N5CCc6cccc(C(=O)Nc7nc8ccccc8s7)c6C5)ccc4-c4ccnc(OC(C)C)c4C)cc3)CC2)C(C)(C)C)cc1 [I-300] | 100 to 1000 nM | 50 to 75% | 100 to 500 nM | 1000 to 10000 nM
8 | Cc1ncsc1-c1ccc([C@H](C)NC(=O)[C@@H]2C[C@@H](O)CN2C(=O)[C@@H](NC(=O)[C@H]2CC[C@H](c3nc(C4CCCN(C(=O)c5nc(N6CCc7cccc(C(=O)Nc8nc9ccccc9s8)c7C6)ccc5-c5cnn(CC6CCCCC6)c5C)C4)no3)CC2)C(C)(C)C)cc1 (some centres unmarked) [I-301] | 100 to 1000 nM | 50 to 75% | > 1000 nM | 1000 to 10000 nM
9 | Cc1ncsc1-c1ccc([C@H](C)NC(=O)[C@@H]2C[C@@H](O)CN2C(=O)[C@@H](NC(=O)CCCCCS(=O)(=O)NC(=O)c2nc(N3CCc4cccc(C(=O)Nc5nc6ccccc6s5)c4C3)ccc2-c2cccc3c2cnn3C(C)C)C(C)(C)C)cc1 [I-302] | 1000 to 3000 nM | 50 to 75% | 500 to 1000 nM | 1000 to 10000 nM
10 | Cc1ncsc1-c1ccc([C@H](C)NC(=O)[C@@H]2C[C@@H](O)CN2C(=O)[C@@H](NC(=O)c2ccc(N3CCC(S(=O)(=O)NC(=O)c4nc(N5CCc6cccc(C(=O)Nc7nc8ccccc8s7)c6C5)ccc4-c4cnn(CC5CCCCC5)c4C)CC3)cc2)C(C)(C)C)cc1 [I-303] | 100 to 1000 nM | > 75% | 100 to 500 nM | 1000 to 10000 nM
11 | Cc1ncsc1-c1ccc([C@H](C)NC(=O)[C@@H]2C[C@@H](O)CN2C(=O)[C@@H](NC(=O)CCCS(=O)(=O)NC(=O)c2nc(N3CCc4cccc(C(=O)Nc5nc6ccccc6s5)c4C3)ccc2-c2cnn(CC3CCCCC3)c2C)C(C)(C)C)cc1 [I-304] | 100 to 1000 nM | > 75% | < 10 nM | 1000 to 10000 nM
12 | C#Cc1ccc([C@H](C)NC(=O)[C@@H]2C[C@@H](O)CN2C(=O)[C@@H](NC(=O)CCCCCS(=O)(=O)NC(=O)c2nc(N3CCc4cccc(C(=O)Nc5nc6cccnc6s5)c4C3)ccc2-c2cnn(CC(C)(C)C)c2C)C(C)(C)C)cc1 [I-469] | 100 to 1000 nM | – | – | > 10000 nM
13 | C#Cc1ccc(CNC(=O)[C@@H]2C[C@@H](O)CN2C(=O)[C@@H](NC(=O)CCCCCS(=O)(=O)NC(=O)c2nc(N(C)c3cc(C)c(Nc4nc5ccccc5s4)nn3)ccc2-c2cnn(CC(C)(C)C)c2C)C(C)(C)C)cc1 [I-472] | 100 to 1000 nM | – | – | > 10000 nM

More lines, main results first:

Row | IC50 [2] | Dmax [3] | DC50 [3] | SMILES | IC50 [1]
14 | 100 to 1000 nM | > 75% | 10 to 100 nM | Cc1c(-c2ccc(N3CCc4cccc(C(=O)Nc5nc6cccnc6s5)c4C3)nc2C(=O)NS(=O)(=O)CCCCCC(=O)N[C@H](C(=O)N2C[C@H](O)C[C@H]2C(=O)N[C@H](C)c2ccc(C#N)cc2O)C(C)(C)C)cnn1CC1CCCCC1 (single isomer, unassigned) [I-486] | > 10000 nM
15 | < 100 nM | > 75% | < 10 nM | Cc1cc(N(C)c2ccc(-c3cnn(CC45CC6CC(CC(C6)C4)C5)c3C)c(C(=O)NS(=O)(=O)CCCCCC(=O)N[C@H](C(=O)N3C[C@H](O)C[C@H]3C(=O)N[C@@H](C)c3ccc4c(c3)c(C)nn4C)C(C)(C)C)n2)nnc1Nc1nc2ccccc2s1 (single isomer, unassigned) [I-491] | > 10000 nM
16 | 100 to 1000 nM | > 75% | 10 to 100 nM | Cc1cc(N(C)c2ccc(-c3cnn(CC45CC6CC(CC(C6)C4)C5)c3C)c(C(=O)NS(=O)(=O)CCCCCC(=O)N[C@H](C(=O)N3C[C@H](O)C[C@H]3C(=O)N[C@H](C)c3ccc4c(c3)c(C)nn4C)C(C)(C)C)n2)nnc1Nc1nc2ccccc2s1 (single isomer, unassigned) [I-492] | > 10000 nM
17 | < 100 nM | > 75% | < 10 nM | Cc1ncsc1-c1ccc(CNC(=O)[C@@H]2C[C@@H](O)CN2C(=O)[C@@H](NC(=O)CCc2cccc(S(=O)(=O)NC(=O)c3nc(N4CCc5cccc(C(=O)Nc6nc7ccccc7s6)c5C4)ccc3-c3cnn(CC4CCCCC4)c3C)c2)C(C)(C)C)cc1 [I-283] | 1000 to 10000 nM
18 | < 100 nM | > 75% | < 10 nM | Cc1ncsc1-c1ccc([C@H](C)NC(=O)[C@@H]2C[C@@H](O)CN2C(=O)[C@H](NC(=O)CCCCCCCS(=O)(=O)NC(=O)c2nc(N3CCc4cccc(C(=O)Nc5nc6ccccc6s5)c4C3)ccc2-c2cnn(CC34CC5CC(CC(C5)C3)C4)c2C)C(C)(C)C)cc1 [I-284] | 100 to 1000 nM
19 | 100 to 1000 nM | 50 to 75% | 100 to 500 nM | Cc1ncsc1-c1ccc([C@H](C)NC(=O)[C@@H]2C[C@H](O)CN2C(=O)[C@@H](NC(=O)CCc2ccc(S(=O)(=O)NC(=O)c3nc(N4CCc5cccc(C(=O)Nc6nc7ccccc7s6)c5C4)ccc3-c3cnn(CC4CCCCC4)c3C)cc2)C(C)(C)C)cc1 [I-285] | 1000 to 10000 nM
20 | 100 to 1000 nM | 50 to 75% | 100 to 500 nM | Cc1ncsc1-c1ccc([C@H](C)NC(=O)[C@@H]2C[C@@H](O)CN2C(=O)[C@H](c2cc(OC3CCN(CCNC(=O)c4nc(N5CCc6cccc(C(=O)Nc7nc8ccccc8s7)c6C5)ccc4-c4cnn(CC5CCCCC5)c4C)CC3)no2)C(C)C)cc1 [I-292] | 1000 to 10000 nM
21 | 100 to 1000 nM | 50 to 75% | 10 to 100 nM | Cc1ncsc1-c1ccc([C@H](C)NC(=O)[C@@H]2C[C@@H](O)CN2C(=O)[C@@H](c2cc(OC3CC4(C3)CN(C(=O)c3nc(N5CCc6cccc(C(=O)Nc7nc8ccccc8s7)c6C5)ccc3-c3cnn(CC5CCCCC5)c3C)C4)no2)C(C)C)cc1 [I-294] | 1000 to 10000 nM
22 | < 100 nM | > 75% | 10 to 100 nM | Cc1ncsc1-c1ccc([C@H](C)NC(=O)[C@@H]2C[C@@H](O)CN2C(=O)[C@@H](NC(=O)CCCCc2nc(C3CCCN(C(=O)c4nc(N5CCc6cccc(C(=O)Nc7nc8ccccc8s7)c6C5)ccc4-c4cnn(CC5CCCCC5)c4C)C3)no2)C(C)(C)C)cc1 (some centres unmarked) [I-306] | 1000 to 10000 nM
23 | < 100 nM | – | – | C#Cc1ccc([C@H](C)NC(=O)[C@@H]2C[C@@H](O)CN2C(=O)[C@@H](NC(=O)CCCCCS(=O)(=O)NC(=O)c2nc(N3CCc4cccc(C(=O)Nc5nc6ccccc6s5)c4C3)ccc2-c2cnn(CC(C)(C)C)c2C)C(C)(C)C)cc1 [I-470] | > 10000 nM

Source: patent publication US20250197387A1, “BCL-XL DEGRADERS AND USES THEREOF” (Kymera Therapeutics, Inc., priority 2021, published 2025)
